“Also recorded” adds a separate entry of the source. Bridge positions count the residues as written; N and C are the ends. Peptide text beside a SMILES is read from it.

Results on 1 compound are retold here after paper PMC11477167, “Structure–Function Relationship of a Novel MTX-like Peptide (MTX1) Isolated and Characterized from the Venom of the Scorpion Maurus palmatus” (International Journal of Molecular Sciences, 2024).

For assay [1], the system named is 125I-CHTX binding site of rat brain synaptosomes (Kv channels). In words: Competition binding with 125I-CHTX on rat brain synaptosomes. Particulars: conclusion in words.
For assay [2], the system named is 125I-apamin binding site of rat brain synaptosomes (SKCa channels). In words: Competition binding with 125I-apamin on rat brain synaptosomes (SKCa channels). As for the experimental part:
The rats were euthanized by dislocation and their brains were rapidly removed and placed on a cold plate. The brain tissue was suspended in a 10% (w/v) sucrose-HEPES buffer in a polytron homogenizer with a protease inhibitor. Synaptosomal membranes were prepared as previously described. The protein content of the membranes, determined by the […], was 0.92 µg/µL. The protein content was determined using a modified Lowry method, with assays conducted on the synaptosomal fraction P2 isolated from rat brain. MTX1 was reacted with Na [^125I] (Amersham Biosciences, Buckinghamshire, United Kingdom) in the presence of lactoperoxidase and H2O2 in 50 mM phosphate buffer at pH 7.2. The separation of free iodine was achieved by anion exchange chromatography using Dowex 1X-8 (Merck, Darmstadt, Germany). The mixture was then injected into a reverse-phase HPLC column (analytical RP-C18 Beckman, Ultrasphere, 5 μm, 4.6 × 250 mm). Solvent A consisted of 0.1% trifluoroacetic acid (v/v) in water, and solvent B consisted of 0.1% trifluoroacetic acid (v/v) in acetonitrile. The HPLC experiments were performed as previously described. Radioactivity was quantified using a Packard spectrometer (Crystal I1 multidetector system, San Francisco, CA, USA) with the native toxin eluted at 18 min. The iodination mixture yielded only two peaks (RT = 2 min and RdT = 25 min); approximately 70–85% of the radioactivity was linked to the peak (RT = 25 min), which was postulated to correspond to the mono-iod derivative.
4.10. Binding Assay for SKCa Channels
The process of iodination of apamin was executed utilizing IODO-GEN. In displacement assays, 50 μL of 0.1 nM ^125I-apamine (2000 Ci/mmol) was combined with 400 µL of synaptosome suspension (0.4 mg protein/mL). The samples were incubated with 50 µL of one of the competitor concentration series (MTX1, MTX or CHTX) in a final volume of 500 µL for 1 h at 0 °C. The incubation buffer consisted of 25 mM hydroxymethyl amino methane (Tris-HCl) (pH 7.2), 10 mM potassium chloride (KCl) and 0.1% BS. Following centrifugation for 10 min, the samples were centrifuged again and the resulting pellets were washed three times with 2 mL of the same buffer. The quantification of bound radioactivity was conducted utilizing (Packard Crystal II). The mean values of triplicate experiments are reported. Non-specific binding, characterized as less than 10% of total binding, was determined in the presence of an excess (10 nM) of unlabeled apamin.

A further assay addresses T1, rat Kv1.2 (Rattus norvegicus, UniProt P63142).
T1 construct: expressed in transfected cells; host or cells: Xenopus laevis oocytes, cRNA injection
In words: Two-electrode voltage clamp, Kv1.2 expressed in Xenopus laevis oocytes. It counts as cell-based. The source says: (§1) 4.11. Oocyte Preparation and Electrophysiological Recordings
(§2) The xenopus was anesthetized in a bath of tricaine solution. It was then placed on its back in a dissecting tank covered with alcohol-cleaned BenchGuard paper. A horizontal slit was made in the animal’s lower abdomen by incising a piece of the underlying muscle with the skin. The ootheca were then gently pulled outwards and a portion was cut out and transferred to a sterile Erlen tube containing MBS medium, leaving the rest in place in the ovary. Finally, the incision was closed using sterile, absorbable sutures.
(§3) Xenopus laevis oocytes at stages V and VI were retrieved and prepared for cRNA injection and electrophysiological recordings. The enzymatic elimination of oocyte follicular cell layers was carried out by employing 2 mg·mL^−1 collagenase IA (Sigma, St. Louis, MO, USA) in the classical Barth’s medium containing (in mm) 88 NaCl, 1 KCl, 0.82 MgSO4, 0.33 Ca(NO3)2, 0.41 CaCl2, 2.4 NaHCO3, and 15N-2-hydroxyethylpiperazine-N′-ethanesulfonic acid (Hepes), with a pH of 7.4 (NaOH). The plasmids were digested using Xba1 (rat Kv1.2) and EcoR1 (rat Kv1.3). The resultant linearized plasmids were transcribed using either a T7 or SP6 mMessage mMachine transcription kit (Ambion, Austin, TX, USA). Subsequently, cRNAs (1 µg·µL^−1) were cryopreserved in H2O at −80 °C. Injection of cells with 50 nL of cRNA (0.2 µg·µL^−1 rat Kv1.2, or Kv1.3 channels) took place 2 days later. To promote the expression of ion channels, the cells were cultured at 16 °C in a specified nutrient oocyte medium for 2–6 days prior to conducting current recordings. Oocyte currents were captured at 20–22 °C using conventional two-microelectrode techniques with a voltage-clamp amplifier (GeneClamp 500; Axon Instruments, Foster City, CA, USA) linked to a 16-bit AD/DA converter (Digidata 1200A, Axon Instruments). […] Voltage pulses were administered every 15 s, maintaining a holding potential of −80 mV. Current data were sampled at 10 kHz, subjected to low-pass filtration at 2 kHz through an eight-pole Bessel filter and archived on a computer for subsequent assessment. The extracellular solution for recording contained (in mM) 88 NaCl, 10 KCl, 2 MgCl2, 0.5 CaCl2, 0.5 niflumic acid, 5 Hepes, and 0.1% bovine serum albumin, with a pH of 7.4 (NaOH). The P/4 protocol was implemented for online subtraction of the leak and capacitive currents. Any residual capacitive artifacts were eliminated for visualization purposes. The peptide solutions of MTX1 were perfused into the recording chamber at a flow rate of 2 mL/min using a ValveBank4 apparatus (Automate Scientific Inc., St Berkeley, CA 94710, USA). Data analysis was conducted using the software patch clamp 6.0.3 (Axon Instruments, Foster City, CA, USA). The outcomes are presented as the mean ± SEM.
(Two-electrode voltage clamp holds a large cell at a set potential and records current.)

The target of the next assay is T2, rat Kv1.3 (Rattus norvegicus, UniProt P15384).
T2 construct: expressed in transfected cells; host or cells: Xenopus laevis oocytes, cRNA injection
In words: Two-electrode voltage clamp, Kv1.3 expressed in Xenopus laevis oocytes. Type of assay: cell-based.
Source text: as §1, §2, §3

[3] abbreviates: comparison in words (Kv1.2 and SKCa channels together).
[4] abbreviates: 2.5 nM, extracellular application.
Where [5] appears, read: kinetics of inhibition, after washing.
The mark [6] stands for this setting: oocytes, one value printed for Kv1.2 and Kv1.3.

T1 sequence (P63142 whole entry): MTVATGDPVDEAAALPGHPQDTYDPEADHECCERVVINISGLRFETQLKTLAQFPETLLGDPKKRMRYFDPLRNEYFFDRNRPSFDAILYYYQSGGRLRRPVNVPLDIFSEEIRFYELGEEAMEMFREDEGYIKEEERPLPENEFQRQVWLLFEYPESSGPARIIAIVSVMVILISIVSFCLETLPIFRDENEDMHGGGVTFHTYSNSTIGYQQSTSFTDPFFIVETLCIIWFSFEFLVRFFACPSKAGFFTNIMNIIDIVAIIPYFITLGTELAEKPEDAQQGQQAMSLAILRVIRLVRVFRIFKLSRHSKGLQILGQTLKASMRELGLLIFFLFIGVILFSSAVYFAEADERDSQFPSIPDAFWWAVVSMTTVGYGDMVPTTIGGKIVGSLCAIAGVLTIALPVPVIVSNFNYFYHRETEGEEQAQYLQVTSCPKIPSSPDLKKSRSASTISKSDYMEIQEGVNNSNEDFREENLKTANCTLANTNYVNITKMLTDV
T2 sequence (P15384 whole entry): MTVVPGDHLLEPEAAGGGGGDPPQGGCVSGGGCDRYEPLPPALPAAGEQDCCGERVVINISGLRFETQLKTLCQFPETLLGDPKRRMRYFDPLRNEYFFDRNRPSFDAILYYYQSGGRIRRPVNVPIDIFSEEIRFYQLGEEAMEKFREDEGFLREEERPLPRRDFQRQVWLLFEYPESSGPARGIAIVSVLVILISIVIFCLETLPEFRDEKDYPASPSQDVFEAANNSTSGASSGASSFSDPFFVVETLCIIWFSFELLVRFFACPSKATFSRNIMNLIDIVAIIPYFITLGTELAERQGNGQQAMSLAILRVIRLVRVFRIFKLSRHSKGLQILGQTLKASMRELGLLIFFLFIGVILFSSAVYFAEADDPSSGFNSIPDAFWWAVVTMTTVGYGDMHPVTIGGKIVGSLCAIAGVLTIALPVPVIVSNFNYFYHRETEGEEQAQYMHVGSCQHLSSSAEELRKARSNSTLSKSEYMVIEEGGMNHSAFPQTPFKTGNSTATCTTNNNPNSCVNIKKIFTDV

Usually IC50 stands for the concentration that gives 50% inhibition. Usually inhibition stands for the relative decrease from the control value, in per cent. For `CSCC[C@@H]1NC(=O)[C@@H]2CSSC[C@H](NC(=O)[C@H](CO)NC(=O)[C@@H](N)C(C)C)C(=O)N[C@@H]([C@@H](C)O)C(=O)NCC(=O)N[C@@H](CO)C(=O)N[C@@H](CCCCN)C(=O)N[C@@H](CCC(=O)O)C(=O)N[C@@H](CSSC[C@@H](C(=O)N[C@@H](CCCCN)C(=O)N[C@H]3CSSC[C@@H](C(N)=O)NC(=O)CNC(=O)[C@H](Cc4ccc(O)cc4)NC3=O)NC(=O)[C@H](CCCCN)NC(=O)[C@H](CCCNC(=N)N)NC(=O)[C@H](CC(N)=O)NC1=O)C(=O)N[C@@H](Cc1ccc(O)cc1)C(=O)N[C@@H](C)C(=O)N1CCC[C@H]1C(=O)N[C@H]1CSSC[C@H](NC(=O)CNC(=O)[C@H]([C@@H](C)O)NC(=O)[C@H](CCC(N)=O)NC(=O)[C@H](CCCCN)NC(=O)[C@H](CCCCN)NC1=O)C(=O)N1CCC[C@H]1C(=O)N[C@@H](CC(N)=O)C(=O)N[C@@H](C)C(=O)N[C@@H](CCCCN)C(=O)N2` [MTX1] (H-VSCTGSKECYAPCKKQTGCPNAKCMNRKCKCYGC-NH2; disulfide 3-24, 9-29, 13-19, 31-34; N-terminus and C-terminus assumed), in assay [1], the “Interaction with the CHTX-binding site” value is listed as “partially interacted with the CHTX-binding site”. In addition, the “Potency on SKCa channels relative to MTX” value in assay [2] (setting [3]) was “higher binding affinity; also recorded: significantly more effective at inhibiting the Kv1.2 currents and SKCa channels”. Also, the “Affinity relative to MTX, apamin-sensitive SKCa channels” value in assay [2] (comparison of IC50 of MTX1 with IC50 of MTX (5 nM)) is listed as “almost three times higher than that of MTX”. Moreover, in assay [2] (rat brain synaptosomes (0.4 mg protein/mL), 50 μL of 0.1 nM 125I-apamin, 1 h, 0 °C, pH 7.2, mean of triplicate, read-out: IC50, inhibition of 125I-apamin binding), the half-inhibitory concentration (IC50) stood at 1.7 nM. Moreover, in assay [2] (rat brain synaptosomes, conclusion in words), the “Recognition of apamin receptor sites” value is “recognizes apamin receptor sites with a high affinity and binds partially with these sites”. Besides, the “IC50 on Kv1.2 relative to MTX” value on rat Kv1.2 (0.26 nM of MTX1 against 0.8 nM of MTX) is recorded as “three times lower than that of MTX”. Moreover, the “Reduction of outward Kv1.2 currents over voltage” value on rat Kv1.2 (setting [4]) was “markedly reduced outward Kv1.2 and Kv1.3 currents at all test voltages examined”. Also, the inhibition at 0.0025 µM on rat Kv1.2 (2.5 nM, oocytes, read-out: Inhibition of Kv1.2 currents) was 90%. In addition, at rat Kv1.2 (setting [3]), the “Potency on Kv1.2 relative to MTX” value is “higher binding affinity; also recorded: more active than MTX on the Kv1.2 channel; also recorded: significantly more effective at inhibiting the Kv1.2 currents and SKCa channels”. Moreover, the “Reversibility on washing, Kv1.2” value on rat Kv1.2 (setting [5]) is reported as “partial recovery after the washing”. Also, the “Hill coefficient, Kv1.2 concentration-response” value on rat Kv1.2 (setting [6]) is recorded as 1.1 ± 0.1. In addition, the “Reduction of outward Kv1.3 currents over voltage” value on rat Kv1.3 (setting [4]) is “markedly reduced outward Kv1.2 and Kv1.3 currents at all test voltages examined”. Also, on rat Kv1.3 (comparison in words), the “Block of Kv1.3 relative to MTX” value is given as “comparable effect to MTX; also recorded: in a comparable manner to MTX”. The “Reversibility on washing, Kv1.3” value on rat Kv1.3 (setting [5]) was “partial recovery after the washing”. Moreover, the “Hill coefficient, Kv1.3 concentration-response” value on rat Kv1.3 (setting [6]) is 1.1 ± 0.1.
